In the assay the target is T1, CYP17 (human testicular microsome) (Homo sapiens, UniProt P05093).
T1 construct: using microsomal fraction from human testis (Celsis Cat #S00110) as the enzyme source; tissue Celsis S00110; host or cells: human testis microsomal fraction
T1 sequence (P05093 1-508): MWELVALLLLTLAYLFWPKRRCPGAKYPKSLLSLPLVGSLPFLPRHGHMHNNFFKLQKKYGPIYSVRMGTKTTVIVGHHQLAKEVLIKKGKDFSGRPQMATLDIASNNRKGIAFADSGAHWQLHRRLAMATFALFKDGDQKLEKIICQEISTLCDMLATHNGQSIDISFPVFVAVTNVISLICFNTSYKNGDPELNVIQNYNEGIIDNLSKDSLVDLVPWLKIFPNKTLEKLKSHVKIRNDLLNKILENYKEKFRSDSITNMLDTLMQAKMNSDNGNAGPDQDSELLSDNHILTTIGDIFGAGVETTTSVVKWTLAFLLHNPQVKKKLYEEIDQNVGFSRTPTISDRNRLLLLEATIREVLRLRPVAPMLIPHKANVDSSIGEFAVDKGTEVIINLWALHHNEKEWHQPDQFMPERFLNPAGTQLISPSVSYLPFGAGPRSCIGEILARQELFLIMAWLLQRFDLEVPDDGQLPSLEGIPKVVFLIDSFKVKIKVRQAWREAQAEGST
The assay can be described thus: CYP17 enzymatic assay (% inhibition at 1 nM) (Biological Example 12). The class given is biochemical.

Where [1] appears, read: compound at 1 nM, read-out: CYP17 enzymatic assay % inhibition at 1 nM (Biological Example No. 12).
[2] abbreviates: test compound at 1 nM, read-out: CYP17 enzymatic assay percent inhibition at 1 nM (Biological Example No. 12).
Where [3] appears, read: compound at 1 nM, read-out: Biological Example No. 12: CYP17 enzymatic assay % inhibition at 1 nM.

Molecules are shown by their SMILES. Read-outs that look alike come from different tables or passages of the source.

Broadly, the inhibition is the percentage by which the read-out fell short of the control. Consider `CNC1C[C@H]2[C@@H]3CC=C(n4ccnc4)[C@@]3(C)CC[C@@H]2[C@@]2(C)CCC3CC312` (mixture of isomers) [Compound 248, (3aR,5aS)-6-(1H-imidazol-1-yl)-N,3a,5a-trimethyl-1,1a,2,3,3a,3b,4,5,5a,8,8a,8b,9,10-tetradecahydrocyclopenta[a]cyclopropa[2,3]cyclopenta[1,2-f]naphthalen-10-amine], for which the inhibition at 0.001 µM under setting [1] is under 10%.

Turning to `CC(C)C(=O)O[C@H]1CC[C@@]2(C)C(=CCC3C4=CC=C(c5cccnc5)[C@@]4(C)CCC32)C1` (stereo partly drawn) [Compound 191, (3S,10R,13S)-10,13-dimethyl-17-(pyridin-3-yl)-2,3,4,7,8,9,10,11,12,13-decahydro-1H-cyclopenta[a]phenanthren-3-yl isobutyrate], the inhibition at 0.001 µM under setting [1] lay within 10 to 50%.

For `CC(C)(C)C(=O)O[C@H]1CC[C@@]2(C)C(=CCC3C4=CC=C(c5cccnc5)[C@@]4(C)CCC32)C1` (stereo partly drawn) [Compound 192, (3S,10R,13S)-10,13-dimethyl-17-(pyridin-3-yl)-2,3,4,7,8,9,10,11,12,13-decahydro-1H-cyclopenta[a]phenanthren-3-yl pivalate], under setting [1], the inhibition at 0.001 µM fell in the range of 10 to 50%.

Regarding `CCC(=O)O[C@H]1CC[C@@]2(C)C(=CCC3C4=CC=C(c5cccnc5)[C@@]4(C)CCC32)C1` (stereo partly drawn) [Compound 193, (3S,10R,13S)-10,13-dimethyl-17-(pyridin-3-yl)-2,3,4,7,8,9,10,11,12,13-decahydro-1H-cyclopenta[a]phenanthren-3-yl propionate], under setting [2], the inhibition at 0.001 µM lay in the range of 10 to 50%.

`C[C@]12CCC3C(CC=C4C[C@@H](OC(=O)c5ccccc5)CC[C@@]43C)C1=CC=C2c1cccnc1` (stereo partly drawn) [Compound 194, (3S,10R,13S)-10,13-dimethyl-17-(pyridin-3-yl)-2,3,4,7,8,9,10,11,12,13-decahydro-1H-cyclopenta[a]phenanthren-3-yl benzoate]: under setting [2], the inhibition at 0.001 µM was in the range of 10 to 50%.

In the case of `Cc1ccccc1C(=O)O[C@H]1CC[C@@]2(C)C(=CCC3C4=CC=C(c5cccnc5)[C@@]4(C)CCC32)C1` (stereo partly drawn) [Compound 195, (3S,10R,13S)-10,13-dimethyl-17-(pyridin-3-yl)-2,3,4,7,8,9,10,11,12,13-decahydro-1H-cyclopenta[a]phenanthren-3-yl 2-methylbenzoate], under setting [1], the inhibition at 0.001 µM was 10 to 50%.

For `CC(C)(C)c1ccccc1C(=O)O[C@H]1CC[C@@]2(C)C(=CC[C@H]3C4=CC=C(c5cccnc5)[C@@]4(C)CC[C@@H]32)C1` [Compound 201, (3S,10R,13S)-10,13-dimethyl-17-(pyridin-3-yl)-2,3,4,7,8,9,10,11,12,13-decahydro-1H-cyclopenta[a]phenanthren-3-yl 2-(tert-butyl)benzoate], the inhibition at 0.001 µM under setting [1] is under 10%.

As for `CCNC(=O)O[C@H]1CC[C@@]2(C)C(=CC[C@H]3C4=CC=C(c5cccnc5)[C@@]4(C)CC[C@@H]32)C1` [Compound 202, (3S,10R,13S)-10,13-dimethyl-17-(pyridin-3-yl)-2,3,4,7,8,9,10,11,12,13-decahydro-1H-cyclopenta[a]phenanthren-3-yl ethylcarbamate], under setting [1], the inhibition at 0.001 µM is under 10%.

On to `CC(C)(C)NC(=O)O[C@H]1CC[C@@]2(C)C(=CC[C@H]3C4=CC=C(c5cccnc5)[C@@]4(C)CC[C@@H]32)C1` [Compound 203, (3S,10R,13S)-10,13-dimethyl-17-(pyridin-3-yl)-2,3,4,7,8,9,10,11,12,13-decahydro-1H-cyclopenta[a]phenanthren-3-yl tert-butylcarbamate], for which the inhibition at 0.001 µM under setting [1] was in the range of 10 to 50%.

In the case of `C[C@]12CC[C@H]3[C@@H](CC=C4C[C@@H](OC(=O)Nc5cccnc5)CC[C@@]43C)C1=CC=C2c1cccnc1` [Compound 204, (3S,10R,13S)-10,13-dimethyl-17-(pyridin-3-yl)-2,3,4,7,8,9,10,11,12,13-decahydro-1H-cyclopenta[a]phenanthren-3-yl pyridin-3-ylcarbamate], the inhibition at 0.001 µM under setting [3] is 10 to 50%.

Take `Cc1ccncc1C(=O)O[C@H]1CC[C@@]2(C)C(=CC[C@H]3C4=CC=C(c5cccnc5)[C@@]4(C)CC[C@@H]32)C1` [Compound 205, (3S,10R,13S)-10,13-dimethyl-17-(pyridin-3-yl)-2,3,4,7,8,9,10,11,12,13-decahydro-1H-cyclopenta[a]phenanthren-3-yl 4-methylnicotinate]: the inhibition at 0.001 µM under setting [3] is 10 to 50%.

As for `CC(CO)(CO)C(=O)O[C@H]1CC[C@@]2(C)C(=CC[C@H]3C4=CC=C(c5cccnc5)[C@@]4(C)CC[C@@H]32)C1` [Compound 206, (3S,10R,13S)-10,13-dimethyl-17-(pyridin-3-yl)-2,3,4,7,8,9,10,11,12,13-decahydro-1H-cyclopenta[a]phenanthren-3-yl 3-hydroxy-2-(hydroxymethyl)-2-methylpropanoate], the inhibition at 0.001 µM under setting [3] was under 10%.

In the case of `CN1CCC(C(=O)O[C@H]2CC[C@@]3(C)C(=CC[C@H]4C5=CC=C(c6cccnc6)[C@@]5(C)CC[C@@H]43)C2)CC1` [Compound 207, (3S,10R,13S)-10,13-dimethyl-17-(pyridin-3-yl)-2,3,4,7,8,9,10,11,12,13-decahydro-1H-cyclopenta[a]phenanthren-3-yl 1-methylpiperidine-4-carboxylate], the inhibition at 0.001 µM under setting [3] was in the range of 10 to 50%.

`CNC1CC[C@@]2(C)C(CCC3C2CC[C@]2(C)C(c4cncc(C)c4)=CCC32)C1` (stereo partly drawn) [Compound 210, (10S,13S)-N,10,13-trimethyl-17-(5-methylpyridin-3-yl)-2,3,4,5,6,7,8,9,10,11,12,13,14,15-tetradecahydro-1H-cyclopenta[a]phenanthren-3-amine]: the inhibition at 0.001 µM under setting [1] fell in the range of 10 to 50%.

As to `CNC1CC[C@@]2(C)C(CC[C@@H]3[C@@H]2CC[C@]2(C)C(c4cccnc4)=CC[C@@H]32)C1` (stereo partly drawn) [Compound 211, (10S,13S)-N,10,13-trimethyl-17-(pyridin-3-yl)-2,3,4,5,6,7,8,9,10,11,12,13,14,15-tetradecahydro-1H-cyclopenta[a]phenanthren-3-amine], the inhibition at 0.001 µM under setting [1] was 10 to 50%.

Turning to `CC(=O)N(C)C1CC[C@@]2(C)C(CCC3C2CC[C@]2(C)C(c4cncc(C)c4)=CCC32)C1` (stereo partly drawn) [Compound 212, N-((10S,13S)-10,13-dimethyl-17-(5-methylpyridin-3-yl)-2,3,4,5,6,7,8,9,10,11,12,13,14,15-tetradecahydro-1H-cyclopenta[a]phenanthren-3-yl)-N-methylacetamide], under setting [1], the inhibition at 0.001 µM was in the range of 10 to 50%.

On to `CC(=O)N(C)C1CC[C@@]2(C)C(CCC3C2CC[C@]2(C)C(c4cccnc4)=CCC32)C1` (stereo partly drawn) [Compound 213, N-((10S,13S)-10,13-dimethyl-17-(pyridin-3-yl)-2,3,4,5,6,7,8,9,10,11,12,13,14,15-tetradecahydro-1H-cyclopenta[a]phenanthren-3-yl)-N-methylacetamide], for which the inhibition at 0.001 µM under setting [1] lay in the range of 10 to 50%.

Turning to `C[C@]12CC[C@@H](N)CC1CC[C@@H]1[C@@H]2CC[C@]2(C)C(c3cccnc3)=CC[C@@H]12` (stereo partly drawn) [Compound 214, (3R,10S,13S)-10,13-dimethyl-17-(pyridin-3-yl)-2,3,4,5,6,7,8,9,10,11,12,13,14,15-tetradecahydro-1H-cyclopenta[a]phenanthren-3-amine], the inhibition at 0.001 µM under setting [1] lay within 10 to 50%.

For `C[C@]12CC[C@@H](N=[N+]=[N-])CC1CC[C@@H]1[C@@H]2CC[C@]2(C)C(c3cccnc3)=CC[C@@H]12` (stereo partly drawn) [Compound 214b, 3-((3R,10S,13S)-3-azido-10,13-dimethyl-2,3,4,5,6,7,8,9,10,11,12,13,14,15-tetradecahydro-1H-cyclopenta[a]phenanthren-17-yl)pyridine], the inhibition at 0.001 µM under setting [1] was 10 to 50%.

Turning to `C[C@]12CC[C@@H](NC(=O)C(F)(F)F)CC1CCC1C2CC[C@]2(C)C(c3cccnc3)=CCC12` (stereo partly drawn) [Compound 217, N-((3R,10S,13S)-10,13-dimethyl-17-(pyridin-3-yl)-2,3,4,5,6,7,8,9,10,11,12,13,14,15-tetradecahydro-1H-cyclopenta[a]phenanthren-3-yl)-2,2,2-trifluoroacetamide], under setting [1], the inhibition at 0.001 µM was in the range of 10 to 50%.

For the compound `CC(C)(C)C(=O)N[C@@H]1CC[C@@]2(C)C(CCC3C2CC[C@]2(C)C(c4cccnc4)=CCC32)C1` (stereo partly drawn) [Compound 218, N-((3R,10S,13S)-10,13-dimethyl-17-(pyridin-3-yl)-2,3,4,5,6,7,8,9,10,11,12,13,14,15-tetradecahydro-1H-cyclopenta[a]phenanthren-3-yl)pivalamide], under setting [2], the inhibition at 0.001 µM was 10 to 50%.

As for `C[C@]12CC[C@@H](NS(C)(=O)=O)CC1=CCC1C2CC[C@]2(C)C(c3cccnc3)=CCC12` (stereo partly drawn) [Compound 225, N-((3R,10R,13S)-10,13-dimethyl-17-(pyridin-3-yl)-2,3,4,7,8,9,10,11,12,13,14,15-dodecahydro-1H-cyclopenta[a]phenanthren-3-yl)methanesulfonamide], the inhibition at 0.001 µM under setting [1] is 10 to 50%.

On to `C[C@]12CC[C@@H](NC(=O)c3nccs3)CC1=CC[C@@H]1[C@@H]2CC[C@]2(C)C(c3cccnc3)=CC[C@@H]12` [Compound 229, N-((3R,10R,13S)-10,13-dimethyl-17-(pyridin-3-yl)-2,3,4,7,8,9,10,11,12,13,14,15-dodecahydro-1H-cyclopenta[a]phenanthren-3-yl)thiazole-2-carboxamide], for which the inhibition at 0.001 µM under setting [1] is 10 to 50%.
